{"source": "patent US20240345105A1", "about": "“Compositions and Methods for Detecting Analytes in Oral Fluids” (George Mason Research Foundation, Inc., priority 2023, published 2024)", "assay": "LC/MRM-MS quantification of THC in oral fluid with heavy isotope standard curve", "type": "in vivo", "details": "oral fluid of cannabis smoking volunteer, ratio to heavy THC isotope", "excerpt": "Samples containing drugs of interest are processed and run on the Thermo Quantum Triple Quad MS (LC/MRM MS) in triplicate. Reference Stable heavy isotope analogs are spiked into known drug free OF to determine the sensitivity limit of detection. A standard curve is generated by mixing a known amount of reference heavy isotope analogs with varying amounts of the natural drug, plotting the ratio of the concentration of natural drug to that of the heavy standard isotope analog. The reference heavy isotope analogs are spiked into suspected positive OF sample. The ratio of […] is calculated and fitted to the standard curve to calculate the natural drugs concentration.\nThe present disclosure provides an exemplary oral fluid sample processing protocol. […]"}
{"smiles": "CCCCCc1cc(O)c2c(c1)OC(C)(C)[C@@H]1CCC(C)=C[C@@H]21", "note": "[THC, (6aR,10aR)-6,6,9-trimethyl-3-pentyl-6a, 7,8,10a-tetrahydro-6H-benzo[c]chromen-1-ol]", "values": [{"measurement": "concentration of THC in saliva", "result": 8.615, "unit": "ng/mL"}]}
